Data reported in the NIST ThermoML archive (doi:10.1021/acs.jced.8b00011).
Several values for one entry are separate records, joined by “and”; a condition that tells them apart may be missing. Equal entries are not always repeated. Numbers after ± are expanded uncertainties.

Conditions: Liquid; for mass density: Vibrating tube method; for electrical conductivity: electrochemical impedance spectroscopy

CCCCC[P+](CC)(CC)CC.O=S(=O)([N-]S(=O)(=O)C(F)(F)F)C(F)(F)F
Conditions | electrical conductivity [S/m] | viscosity
273.15 K, 100 kPa, Concentric cylinders viscometry | – | 391.1 ± 13 mPa·s
273.15 K, 100 kPa, Falling or rolling sphere viscometry | – | 396.2 ± 28 mPa·s and 396 ± 28 mPa·s
278.15 K, 100 kPa, Concentric cylinders viscometry | – | 275.6 ± 8.5 mPa·s
278.15 K, 100 kPa, Falling or rolling sphere viscometry | – | 278.3 ± 16 mPa·s and 278.2 ± 16 mPa·s
283.14 K, 149300 kPa, Frequency=0 MHz | 0.0123 ± 0.00025 | –
283.14 K, 174300 kPa, Frequency=0 MHz | 0.00927 ± 0.00019 | –
283.15 K, 100 kPa, Concentric cylinders viscometry | – | 199.6 ± 5.6 mPa·s
283.15 K, 100 kPa, Falling or rolling sphere viscometry | – | 201.3 ± 9.7 mPa·s and 200.4 ± 9.7 mPa·s
283.15 K, 100 kPa, Frequency=0 MHz | 0.076 ± 0.0015 | –
283.15 K, 1200 kPa, Frequency=0 MHz | 0.0749 ± 0.0015 | –
283.15 K, 3100 kPa, Frequency=0 MHz | 0.0728 ± 0.0015 | –
283.15 K, 5100 kPa, Frequency=0 MHz | 0.0709 ± 0.0014 | –
283.15 K, 10600 kPa, Falling or rolling sphere viscometry | – | 228.6 ± 12 mPa·s
283.15 K, 15400 kPa, Frequency=0 MHz | 0.0618 ± 0.0012 | –
283.15 K, 20500 kPa, Frequency=0 MHz | 0.0578 ± 0.0012 | –
283.15 K, 20600 kPa, Falling or rolling sphere viscometry | – | 263 ± 15 mPa·s
283.15 K, 25600 kPa, Frequency=0 MHz | 0.054 ± 0.0011 | –
283.15 K, 30300 kPa, Falling or rolling sphere viscometry | – | 302.4 ± 19 mPa·s
283.15 K, 30600 kPa, Frequency=0 MHz | 0.0507 ± 0.001 | –
283.15 K, 40800 kPa, Falling or rolling sphere viscometry | – | 352.7 ± 24 mPa·s
283.15 K, 42000 kPa, Frequency=0 MHz | 0.0437 ± 0.00088 | –
283.15 K, 50300 kPa, Frequency=0 MHz | 0.0394 ± 0.00079 | –
283.15 K, 50700 kPa, Falling or rolling sphere viscometry | – | 398.9 ± 28 mPa·s
283.15 K, 60900 kPa, Falling or rolling sphere viscometry | – | 459.1 ± 35 mPa·s
283.15 K, 71400 kPa, Falling or rolling sphere viscometry | – | 527.1 ± 42 mPa·s
283.15 K, 74900 kPa, Frequency=0 MHz | 0.0294 ± 0.00059 | –
283.15 K, 80400 kPa, Falling or rolling sphere viscometry | – | 599.8 ± 51 mPa·s
283.15 K, 88200 kPa, Falling or rolling sphere viscometry | – | 667.7 ± 59 mPa·s
283.15 K, 94700 kPa, Falling or rolling sphere viscometry | – | 740.8 ± 68 mPa·s
283.15 K, 99800 kPa, Frequency=0 MHz | 0.0219 ± 0.00044 | –
283.15 K, 126100 kPa, Frequency=0 MHz | 0.016 ± 0.00032 | –
283.16 K, 2100 kPa, Frequency=0 MHz | 0.0741 ± 0.0015 | –
283.16 K, 10300 kPa, Frequency=0 MHz | 0.0661 ± 0.0013 | –
283.16 K, 199900 kPa, Frequency=0 MHz | 0.00703 ± 0.00014 | –
288.15 K, 100 kPa, Concentric cylinders viscometry | – | 148 ± 3.9 mPa·s
293.15 K, 100 kPa, Concentric cylinders viscometry | – | 111.8 ± 2.7 mPa·s and 112.2 ± 2.8 mPa·s and 112 ± 2.7 mPa·s
293.15 K, 100 kPa, Falling or rolling sphere viscometry | – | 112.7 ± 3.8 mPa·s
298.14 K, 176500 kPa, Frequency=0 MHz | 0.0255 ± 0.00051 | –
298.15 K, 100 kPa, Concentric cylinders viscometry | – | 86.33 ± 2 mPa·s
298.15 K, 100 kPa, Falling or rolling sphere viscometry | – | 87.05 ± 3.3 mPa·s and 87.04 ± 3.3 mPa·s and 87.45 ± 3.4 mPa·s
298.15 K, 100 kPa, Frequency=0 MHz | 0.165 ± 0.0033 | –
298.15 K, 600 kPa, Falling or rolling sphere viscometry | – | 86.57 ± 2.4 mPa·s
298.15 K, 3400 kPa, Frequency=0 MHz | 0.159 ± 0.0032 | –
298.15 K, 5100 kPa, Frequency=0 MHz | 0.155 ± 0.0031 | –
298.15 K, 9800 kPa, Frequency=0 MHz | 0.146 ± 0.0029 | –
298.15 K, 10500 kPa, Falling or rolling sphere viscometry | – | 99.67 ± 3.1 mPa·s
298.15 K, 15000 kPa, Frequency=0 MHz | 0.138 ± 0.0028 | –
298.15 K, 20500 kPa, Falling or rolling sphere viscometry | – | 114.4 ± 3.9 mPa·s
298.15 K, 20900 kPa, Frequency=0 MHz | 0.129 ± 0.0026 | –
298.15 K, 25800 kPa, Frequency=0 MHz | 0.122 ± 0.0024 | –
298.15 K, 30600 kPa, Falling or rolling sphere viscometry | – | 130.4 ± 4.9 mPa·s
298.15 K, 31200 kPa, Frequency=0 MHz | 0.114 ± 0.0023 | –
298.15 K, 40500 kPa, Falling or rolling sphere viscometry | – | 148 ± 6 mPa·s
298.15 K, 41000 kPa, Frequency=0 MHz | 0.102 ± 0.002 | –
298.15 K, 50500 kPa, Falling or rolling sphere viscometry | – | 167.4 ± 7.3 mPa·s
298.15 K, 51100 kPa, Frequency=0 MHz | 0.0914 ± 0.0018 | –
298.15 K, 56700 kPa, Frequency=0 MHz | 0.0859 ± 0.0017 | –

Conditions | electrical conductivity | mass density
273.15 K, 100 kPa | – | 1323.74 ± 1.9 kg/m3 and 1324 ± 1.9 kg/m3 and 1323.6 ± 1.3 kg/m3
273.15 K, 101.33 kPa | 0.0399 S/m and 0.04 S/m | –
278.15 K, 100 kPa | – | 1319.92 ± 1.9 kg/m3 and 1319.6 ± 1.9 kg/m3 and 1319.31 ± 1.3 kg/m3
278.15 K, 101.33 kPa | 0.0556 S/m and 0.0557 S/m | –
283.15 K, 100 kPa | – | 1315.3 ± 1.9 kg/m3 [middle of 4 runs]
283.15 K, 101.33 kPa | 0.0756 S/m and 0.076 S/m and 0.0755 S/m | –
288.15 K, 100 kPa | – | 1311.35 ± 1.9 kg/m3 and 1311 ± 1.9 kg/m3 and 1310.72 ± 1.3 kg/m3
288.16 K, 101.33 kPa | 0.1 S/m | –
293.15 K, 100 kPa | – | 1306.8 ± 1.8 kg/m3 [middle of 4 runs]
293.15 K, 101.33 kPa | 0.13 S/m | –
298.15 K, 100 kPa | – | 1302.45 ± 1.8 kg/m3 [middle of 6 runs]
298.15 K, 101.33 kPa | 0.166 S/m and 0.165 S/m | –
298.15 K, 1000 kPa | – | 1302.82 ± 1.3 kg/m3
298.15 K, 5000 kPa | – | 1305.75 ± 1.3 kg/m3
298.15 K, 10000 kPa | – | 1309.28 ± 1.3 kg/m3
298.15 K, 15000 kPa | – | 1312.76 ± 1.4 kg/m3
298.15 K, 20000 kPa | – | 1316.13 ± 1.4 kg/m3
298.15 K, 25000 kPa | – | 1319.42 ± 1.4 kg/m3
298.15 K, 30000 kPa | – | 1322.62 ± 1.4 kg/m3
298.15 K, 35000 kPa | – | 1325.82 ± 1.5 kg/m3
298.15 K, 40000 kPa | – | 1328.9 ± 1.5 kg/m3
298.15 K, 45000 kPa | – | 1331.96 ± 1.6 kg/m3
298.15 K, 50010 kPa | – | 1334.83 ± 1.6 kg/m3
